# From ChEMBL document CHEMBL3352491, “Novel semicarbazides and ureas of primaquine with bulky aryl or hydroxyalkyl substituents: synthesis, cytostatic and antioxidative activity” (Eur J Med Chem, 2014)
# Test system: not listed separately
# Assay: Cytostatic activity against human MIAPaCa2 cells assessed as growth inhibition after 3 to 4 days by MTT assay
# Type: functional, cell-based
# Conditions: MIA PaCa-2; call rule not given here
row,Structure (SMILES),IC50 [µM]
1,COc1cc(NC(C)CCCNC(=O)NNC(=O)N(CCO)CCO)c2ncccc2c1 (configuration not stated),> 250
2,COc1cc(NC(C)CCCNC(=O)N(C)C(c2ccccc2)c2ccccc2)c2ncccc2c1 (configuration not stated),21
3,COc1cc(NC(C)CCCNC(=O)NN)c2ncccc2c1 (configuration not stated),≥ 250
4,CCOC(=O)N(C)C(c1ccccc1)c1ccccc1,94

# Test system: not listed separately
# Assay: Cytostatic activity against human Molt4/C8 cells assessed as growth inhibition after 3 to 4 days by MTT assay
# Type: functional, cell-based
# Conditions: MOLT-4
row,Structure (SMILES),IC50 [µM]
1,COc1cc(NC(C)CCCNC(=O)NNC(=O)N(CCO)CCO)c2ncccc2c1 (configuration not stated),> 250
2,COc1cc(NC(C)CCCNC(=O)N(C)C(c2ccccc2)c2ccccc2)c2ncccc2c1 (configuration not stated),10
3,COc1cc(NC(C)CCCNC(=O)NN)c2ncccc2c1 (configuration not stated),≥ 250
4,CCOC(=O)N(C)C(c1ccccc1)c1ccccc1,105

# Test system: SW-620
# Assay: Cytostatic activity against human SW620 cells assessed as growth inhibition after 3 to 4 days by MTT assay
# Type: functional, cell-based
# Conditions: not given
row,Structure (SMILES),IC50 [µM]
1,COc1cc(NC(C)CCCNC(=O)N(C)C(c2ccccc2)c2ccccc2)c2ncccc2c1 (configuration not stated),> 100
2,CCOC(=O)N(C)C(c1ccccc1)c1ccccc1,27

# Next, values leading:
row,IC50 [µM],Structure (SMILES)
1,> 100,COc1cc(NC(C)CCCNC(=O)NNC(=O)N(CCO)CCO)c2ncccc2c1 (configuration not stated)
2,> 100,COc1cc(NC(C)CCCNC(=O)NN)c2ncccc2c1 (configuration not stated)

# Test system: L1210
# Assay: Cytostatic activity against mouse L1210 cells assessed as growth inhibition after 3 to 4 days by MTT assay
# Type: functional, cell-based
# Conditions: not given
row,Structure (SMILES),IC50 [µM]
1,COc1cc(NC(C)CCCNC(=O)N(C)C(c2ccccc2)c2ccccc2)c2ncccc2c1 (configuration not stated),6.7
2,CCOC(=O)N(C)C(c1ccccc1)c1ccccc1,96

# Second part, the compound after the results:
row,IC50 [µM],Structure (SMILES)
1,> 250,COc1cc(NC(C)CCCNC(=O)NNC(=O)N(CCO)CCO)c2ncccc2c1 (configuration not stated)
2,> 250,COc1cc(NC(C)CCCNC(=O)NN)c2ncccc2c1 (configuration not stated)

# Test system: not listed separately
# Assay: Antioxidant activity assessed as DPPH scavenging activity at 100 uM after 60 mins by spectrophotometry
# Type: physicochemical
# Conditions: 1 h
row,Structure (SMILES),Activity
1,COc1cc(NC(C)CCCNC(=O)N(C)C(c2ccccc2)c2ccccc2)c2ncccc2c1 (configuration not stated),16%
2,CCOC(=O)N(C)C(c1ccccc1)c1ccccc1,Not Active

# Results, then the compound that gave them:
row,Activity,Structure (SMILES)
1,45%,COc1cc(NC(C)CCCNC(=O)NNC(=O)N(CCO)CCO)c2ncccc2c1 (configuration not stated)
2,82%,COc1cc(NC(C)CCCNC(=O)NN)c2ncccc2c1 (configuration not stated)

# Test system: not listed separately
# Assay: Cytostatic activity against human H460 cells assessed as growth inhibition after 3 to 4 days by MTT assay
# Type: functional, cell-based
# Conditions: NCI-H460
row,Structure (SMILES),IC50 [µM]
1,COc1cc(NC(C)CCCNC(=O)NNC(=O)N(CCO)CCO)c2ncccc2c1 (configuration not stated),> 100
2,COc1cc(NC(C)CCCNC(=O)N(C)C(c2ccccc2)c2ccccc2)c2ncccc2c1 (configuration not stated),≥ 100
3,COc1cc(NC(C)CCCNC(=O)NN)c2ncccc2c1 (configuration not stated),> 100
4,CCOC(=O)N(C)C(c1ccccc1)c1ccccc1,≥ 100

# Test system: HeLa
# Assay: Cytostatic activity against human HeLa cells assessed as growth inhibition after 3 to 4 days by MTT assay
# Type: functional, cell-based
# Conditions: not given
row,Structure (SMILES),IC50 [µM]
1,COc1cc(NC(C)CCCNC(=O)N(C)C(c2ccccc2)c2ccccc2)c2ncccc2c1 (configuration not stated),121
2,CCOC(=O)N(C)C(c1ccccc1)c1ccccc1,80

# Next, values leading:
row,IC50 [µM],Structure (SMILES)
1,> 250,COc1cc(NC(C)CCCNC(=O)NNC(=O)N(CCO)CCO)c2ncccc2c1 (configuration not stated)
2,≥ 250,COc1cc(NC(C)CCCNC(=O)NN)c2ncccc2c1 (configuration not stated)

# Test system: not listed separately
# Assay: Antioxidant activity assessed as inhibition of lipid peroxidation at 100 uM by spectrophotometry
# Type: physicochemical
# Conditions: not given
row,Structure (SMILES),inhibition (INH)
1,COc1cc(NC(C)CCCNC(=O)N(C)C(c2ccccc2)c2ccccc2)c2ncccc2c1 (configuration not stated),79%
2,CCOC(=O)N(C)C(c1ccccc1)c1ccccc1,Not Active

# More lines, now with the values ahead:
row,inhibition (INH),Structure (SMILES)
1,63%,Cc1c(C)c2c(c(C)c1O)CCC(C)(C(=O)O)O2 (configuration not stated) [TROLOX]
2,43%,COc1cc(NC(C)CCCNC(=O)NNC(=O)N(CCO)CCO)c2ncccc2c1 (configuration not stated)
3,70%,COc1cc(NC(C)CCCNC(=O)NN)c2ncccc2c1 (configuration not stated)

# Test system: MCF7
# Assay: Cytostatic activity against human MCF7 cells assessed as growth inhibition after 3 to 4 days by MTT assay
# Type: functional, cell-based
# Conditions: not given
row,Structure (SMILES),IC50 [µM]
1,COc1cc(NC(C)CCCNC(=O)N(C)C(c2ccccc2)c2ccccc2)c2ncccc2c1 (configuration not stated),9
2,CCOC(=O)N(C)C(c1ccccc1)c1ccccc1,26

# Results, then the compound that gave them:
row,IC50 [µM],Structure (SMILES)
1,29,COc1cc(NC(C)CCCNC(=O)NNC(=O)N(CCO)CCO)c2ncccc2c1 (configuration not stated)
2,16,COc1cc(NC(C)CCCNC(=O)NN)c2ncccc2c1 (configuration not stated)

# Target: Lipoxygenase (Glycine max) (UniProt Q39829)
# Assay: Inhibition of soybean LOX using sodium linoleate as substrate at 100 uM by spectrophotometry
# Conditions: not given
row,inhibition [%],Structure (SMILES)
1,30,COc1cc(NC(C)CCCNC(=O)NNC(=O)N(CCO)CCO)c2ncccc2c1 (configuration not stated)
2,42,COc1cc(NC(C)CCCNC(=O)NN)c2ncccc2c1 (configuration not stated)

# Test system: not listed separately
# Assay: Antioxidant activity assessed as DPPH scavenging activity at 100 uM after 20 mins by spectrophotometry
# Type: physicochemical
# Conditions: not given
row,Structure (SMILES),Activity
1,COc1cc(NC(C)CCCNC(=O)N(C)C(c2ccccc2)c2ccccc2)c2ncccc2c1 (configuration not stated),20%
2,CCOC(=O)N(C)C(c1ccccc1)c1ccccc1,Not Active

# The remaining lines, values ahead:
row,Activity,Structure (SMILES)
1,25%,COc1cc(NC(C)CCCNC(=O)NNC(=O)N(CCO)CCO)c2ncccc2c1 (configuration not stated)
2,61%,COc1cc(NC(C)CCCNC(=O)NN)c2ncccc2c1 (configuration not stated)

# Test system: CCRF-CEM
# Assay: Cytostatic activity against human CEM cells assessed as growth inhibition after 3 to 4 days by MTT assay
# Type: functional, cell-based
# Conditions: not given
row,Structure (SMILES),IC50 [µM]
1,COc1cc(NC(C)CCCNC(=O)N(C)C(c2ccccc2)c2ccccc2)c2ncccc2c1 (configuration not stated),5.2
2,CCOC(=O)N(C)C(c1ccccc1)c1ccccc1,108

# Second part, the compound after the results:
row,IC50 [µM],Structure (SMILES)
1,> 250,COc1cc(NC(C)CCCNC(=O)NNC(=O)N(CCO)CCO)c2ncccc2c1 (configuration not stated)
2,> 250,COc1cc(NC(C)CCCNC(=O)NN)c2ncccc2c1 (configuration not stated)
